Laboratory results from BigSolDB 2.1.

Structure (SMILES): O=Cc1cc(Br)c(O)c(Br)c1
- solubility (mole fraction) (in 1,4-dioxane, 288.15 K): 0.0128
- solubility (mole fraction) (in 1,4-dioxane, 293.15 K): 0.0143
- solubility (mole fraction) (in 1,4-dioxane, 298.15 K): 0.0161
- solubility (mole fraction) (in 1,4-dioxane, 303.15 K): 0.0183
- solubility (mole fraction) (in 1,4-dioxane, 308.15 K): 0.0208
- solubility (mole fraction) (in 1,4-dioxane, 313.15 K): 0.0236
- solubility (mole fraction) (in 1,4-dioxane, 318.15 K): 0.0266
- solubility (mole fraction) (in 1,4-dioxane, 323.15 K): 0.03
- solubility (mole fraction) (in DMF, 278.15 K): 0.00805
- solubility (mole fraction) (in DMF, 283.15 K): 0.00912
- solubility (mole fraction) (in DMF, 288.15 K): 0.0104
- solubility (mole fraction) (in DMF, 293.15 K): 0.012
- solubility (mole fraction) (in DMF, 298.15 K): 0.0137
- solubility (mole fraction) (in DMF, 303.15 K): 0.0157
- solubility (mole fraction) (in DMF, 308.15 K): 0.0178
- solubility (mole fraction) (in DMF, 313.15 K): 0.0201
- solubility (mole fraction) (in DMF, 318.15 K): 0.0225
- solubility (mole fraction) (in DMF, 323.15 K): 0.0251
- solubility (mole fraction) (in DMSO, 293.15 K): 0.00895
- solubility (mole fraction) (in DMSO, 298.15 K): 0.0101
- solubility (mole fraction) (in DMSO, 303.15 K): 0.0115
- solubility (mole fraction) (in DMSO, 308.15 K): 0.0132
- solubility (mole fraction) (in DMSO, 313.15 K): 0.0152
- solubility (mole fraction) (in DMSO, 318.15 K): 0.0174
- solubility (mole fraction) (in DMSO, 323.15 K): 0.0203
- solubility (mole fraction) (in acetonitrile, 278.15 K): 0.002
- solubility (mole fraction) (in acetonitrile, 283.15 K): 0.00233
- solubility (mole fraction) (in acetonitrile, 288.15 K): 0.00277
- solubility (mole fraction) (in acetonitrile, 293.15 K): 0.00328
- solubility (mole fraction) (in acetonitrile, 298.15 K): 0.00383
- solubility (mole fraction) (in acetonitrile, 303.15 K): 0.00452
- solubility (mole fraction) (in acetonitrile, 308.15 K): 0.00531
- solubility (mole fraction) (in acetonitrile, 313.15 K): 0.00621
- solubility (mole fraction) (in acetonitrile, 318.15 K): 0.00734
- solubility (mole fraction) (in acetonitrile, 323.15 K): 0.0086
- solubility (mole fraction) (in cyclohexane, 283.15 K): 0.000245
- solubility (mole fraction) (in cyclohexane, 288.15 K): 0.000317
- solubility (mole fraction) (in cyclohexane, 293.15 K): 0.000408
- solubility (mole fraction) (in cyclohexane, 298.15 K): 0.000513
- solubility (mole fraction) (in cyclohexane, 303.15 K): 0.000637
- solubility (mole fraction) (in cyclohexane, 308.15 K): 0.000791
- solubility (mole fraction) (in cyclohexane, 313.15 K): 0.000965
- solubility (mole fraction) (in cyclohexane, 318.15 K): 0.00116
- solubility (mole fraction) (in cyclohexane, 323.15 K): 0.00139
- solubility (mole fraction) (in ethanol, 278.15 K): 0.00281
- solubility (mole fraction) (in ethanol, 283.15 K): 0.00314
- solubility (mole fraction) (in ethanol, 288.15 K): 0.00358
- solubility (mole fraction) (in ethanol, 293.15 K): 0.00413
- solubility (mole fraction) (in ethanol, 298.15 K): 0.00477
- solubility (mole fraction) (in ethanol, 303.15 K): 0.00555
- solubility (mole fraction) (in ethanol, 308.15 K): 0.00646
- solubility (mole fraction) (in ethanol, 313.15 K): 0.00742
- solubility (mole fraction) (in ethanol, 318.15 K): 0.00851
- solubility (mole fraction) (in ethanol, 323.15 K): 0.00974
- solubility (mole fraction) (in ethyl acetate, 278.15 K): 0.0055
- solubility (mole fraction) (in ethyl acetate, 283.15 K): 0.00634
- solubility (mole fraction) (in ethyl acetate, 288.15 K): 0.00729
- solubility (mole fraction) (in ethyl acetate, 293.15 K): 0.00845
- solubility (mole fraction) (in ethyl acetate, 298.15 K): 0.0098
- solubility (mole fraction) (in ethyl acetate, 303.15 K): 0.0114
- solubility (mole fraction) (in ethyl acetate, 308.15 K): 0.0131
- solubility (mole fraction) (in ethyl acetate, 313.15 K): 0.015
- solubility (mole fraction) (in ethyl acetate, 318.15 K): 0.0171
- solubility (mole fraction) (in ethyl acetate, 323.15 K): 0.0194
- solubility (mole fraction) (in ethylene glycol, 278.15 K): 0.00234
- solubility (mole fraction) (in ethylene glycol, 283.15 K): 0.00274
- solubility (mole fraction) (in ethylene glycol, 288.15 K): 0.00327
- solubility (mole fraction) (in ethylene glycol, 293.15 K): 0.00397
- solubility (mole fraction) (in ethylene glycol, 298.15 K): 0.00476
- solubility (mole fraction) (in ethylene glycol, 303.15 K): 0.00571
- solubility (mole fraction) (in ethylene glycol, 308.15 K): 0.00675
- solubility (mole fraction) (in ethylene glycol, 313.15 K): 0.00796
- solubility (mole fraction) (in ethylene glycol, 318.15 K): 0.00923
- solubility (mole fraction) (in ethylene glycol, 323.15 K): 0.0107
- solubility (mole fraction) (in isobutanol, 278.15 K): 0.00368
- solubility (mole fraction) (in isobutanol, 283.15 K): 0.00422
- solubility (mole fraction) (in isobutanol, 288.15 K): 0.0049
- solubility (mole fraction) (in isobutanol, 293.15 K): 0.00569
- solubility (mole fraction) (in isobutanol, 298.15 K): 0.00659
- solubility (mole fraction) (in isobutanol, 303.15 K): 0.00762
- solubility (mole fraction) (in isobutanol, 308.15 K): 0.00878
- solubility (mole fraction) (in isobutanol, 313.15 K): 0.01
- solubility (mole fraction) (in isobutanol, 318.15 K): 0.0115
- solubility (mole fraction) (in isobutanol, 323.15 K): 0.0132
- solubility (mole fraction) (in isopropanol, 278.15 K): 0.003
- solubility (mole fraction) (in isopropanol, 283.15 K): 0.00343
- solubility (mole fraction) (in isopropanol, 288.15 K): 0.00399
- solubility (mole fraction) (in isopropanol, 293.15 K): 0.00467
- solubility (mole fraction) (in isopropanol, 298.15 K): 0.00542
- solubility (mole fraction) (in isopropanol, 303.15 K): 0.00629
- solubility (mole fraction) (in isopropanol, 308.15 K): 0.00731
- solubility (mole fraction) (in isopropanol, 313.15 K): 0.00841
- solubility (mole fraction) (in isopropanol, 318.15 K): 0.00966
- solubility (mole fraction) (in isopropanol, 323.15 K): 0.011
- solubility (mole fraction) (in methanol, 278.15 K): 0.00195
- solubility (mole fraction) (in methanol, 283.15 K): 0.0022
- solubility (mole fraction) (in methanol, 288.15 K): 0.00252
- solubility (mole fraction) (in methanol, 293.15 K): 0.00294
- solubility (mole fraction) (in methanol, 298.15 K): 0.00341
- solubility (mole fraction) (in methanol, 303.15 K): 0.00395
- solubility (mole fraction) (in methanol, 308.15 K): 0.00457
- solubility (mole fraction) (in methanol, 313.15 K): 0.00526
- solubility (mole fraction) (in methanol, 318.15 K): 0.00604
- solubility (mole fraction) (in methanol, 323.15 K): 0.00689
- solubility (mole fraction) (in n-butanol, 278.15 K): 0.00412
- solubility (mole fraction) (in n-butanol, 283.15 K): 0.00466
- solubility (mole fraction) (in n-butanol, 288.15 K): 0.00539
- solubility (mole fraction) (in n-butanol, 293.15 K): 0.00624
- solubility (mole fraction) (in n-butanol, 298.15 K): 0.00726
- solubility (mole fraction) (in n-butanol, 303.15 K): 0.00846
- solubility (mole fraction) (in n-butanol, 308.15 K): 0.0098
- solubility (mole fraction) (in n-butanol, 313.15 K): 0.0112
- solubility (mole fraction) (in n-butanol, 318.15 K): 0.0128
- solubility (mole fraction) (in n-butanol, 323.15 K): 0.0147
- solubility (mole fraction) (in n-octanol, 278.15 K): 0.00788
- solubility (mole fraction) (in n-octanol, 283.15 K): 0.00908
- solubility (mole fraction) (in n-octanol, 288.15 K): 0.0105
- solubility (mole fraction) (in n-octanol, 293.15 K): 0.0121
- solubility (mole fraction) (in n-octanol, 298.15 K): 0.0139
- solubility (mole fraction) (in n-octanol, 303.15 K): 0.016
- solubility (mole fraction) (in n-octanol, 308.15 K): 0.0184
- solubility (mole fraction) (in n-octanol, 313.15 K): 0.021
- solubility (mole fraction) (in n-octanol, 318.15 K): 0.024
- solubility (mole fraction) (in n-octanol, 323.15 K): 0.0275
- solubility (mole fraction) (in n-pentanol, 278.15 K): 0.00662
- solubility (mole fraction) (in n-pentanol, 283.15 K): 0.00744
- solubility (mole fraction) (in n-pentanol, 288.15 K): 0.00859
- solubility (mole fraction) (in n-pentanol, 293.15 K): 0.0101
- solubility (mole fraction) (in n-pentanol, 298.15 K): 0.0116
- solubility (mole fraction) (in n-pentanol, 303.15 K): 0.0135
- solubility (mole fraction) (in n-pentanol, 308.15 K): 0.0155
- solubility (mole fraction) (in n-pentanol, 313.15 K): 0.0176
- solubility (mole fraction) (in n-pentanol, 318.15 K): 0.02
- solubility (mole fraction) (in n-pentanol, 323.15 K): 0.0226
- solubility (mole fraction) (in n-propanol, 278.15 K): 0.00339
- solubility (mole fraction) (in n-propanol, 283.15 K): 0.00379
- solubility (mole fraction) (in n-propanol, 288.15 K): 0.00434
- solubility (mole fraction) (in n-propanol, 293.15 K): 0.00499
- solubility (mole fraction) (in n-propanol, 298.15 K): 0.00579
- solubility (mole fraction) (in n-propanol, 303.15 K): 0.0067
- solubility (mole fraction) (in n-propanol, 308.15 K): 0.00779
- solubility (mole fraction) (in n-propanol, 313.15 K): 0.00897
- solubility (mole fraction) (in n-propanol, 318.15 K): 0.0103
- solubility (mole fraction) (in n-propanol, 323.15 K): 0.0118
- solubility (mole fraction) (in water, 278.15 K): 4.91e-05
- solubility (mole fraction) (in water, 283.15 K): 6.34e-05
- solubility (mole fraction) (in water, 288.15 K): 8.16e-05
- solubility (mole fraction) (in water, 293.15 K): 0.000103
- solubility (mole fraction) (in water, 298.15 K): 0.000131
- solubility (mole fraction) (in water, 303.15 K): 0.000167
- solubility (mole fraction) (in water, 308.15 K): 0.000213
- solubility (mole fraction) (in water, 313.15 K): 0.000267
- solubility (mole fraction) (in water, 318.15 K): 0.000332
- solubility (mole fraction) (in water, 323.15 K): 0.000406
